Tests used:
KB = assay: Inhibitory concentration against KB cancer cell lines was determined.; format: functional, cell-based; details: Homo sapiens
HL-60 = assay: Inhibitory concentration against Human leukemia cancer cell (HL-60)lines was determined.; format: functional, cell-based
HeLa = assay: Inhibitory concentration against Hella cancer cell lines was determined.; format: functional, cell-based; details: Homo sapiens
Homo sapiens = organism: Homo sapiens; assay: Inhibitory concentration against Human Gastric cancer cell (BGC) lines was determined.; format: functional; details: Stomach
BGC-823 = assay: Inhibitory concentration against Human Gastric cancer cell (BGC)lines was determined.; format: functional, cell-based; details: BGC-823, Stomach

NCCNC(=O)c1cc2c3ccccc3nc-2c[nH]1
IC50 (KB): 140 µM | IC50 (HL-60): 81 µM

O=c1[nH]cc(F)c(=O)[nH]1 [FLUOROURACIL]
IC50 (HeLa): 1.6 µM | IC50 (Homo sapiens): 68 µM | IC50 (KB): 3.5 µM | IC50 (HL-60): 1 µM

CN(C)CCCCNC(=O)c1cc2c3ccccc3nc-2c[nH]1
IC50 (HeLa): 140 µM

NCCCCNC(=O)c1cc2c(cn1)[nH]c1ccccc12
IC50 (BGC-823): 8.6 µM | IC50 (KB): 4.1 µM | IC50 (HL-60): 1.9 µM

NCCCCCCNC(=O)c1cc2c3ccccc3nc-2c[nH]1
IC50 (HL-60): 510 µM

CCN(CC)CCNC(=O)c1cc2c3ccccc3nc-2c[nH]1
IC50 (BGC-823): 98 µM | IC50 (KB): 250 µM | IC50 (HL-60): 130 µM
